This is an account of results in patent US11278684B2, “Device and method of delivering particles in the upper respiratory tract” (SERVICES MEDICAUX ARNOLD ET JOAN ZIDULKA INC., priority 2016, dated 2022).

The test is described as follows: two rounds of testing on a patient with ciclesonide administered by the oral inhalation / nasal exhalation method. It counts as in vivo. The note with it: one patient; two sprays of 200 micrograms aerosolized ciclesonide, four to six oral inhalations each followed by nasal exhalation, morning and evening for two weeks; FIG. 3 device. The source says: The Applicant has performed two rounds of testing on a patient suffering from post-nasal drip and upper laryngeal syndrome with an interval of two weeks between the rounds, each round consisting in administering a therapeutically effective dose of ciclesonide using the method of the present invention. […] In some embodiments, the therapeutically effective dose of ciclesonide for the treatment of upper airway cough syndrome is from 25 to 800 micrograms. Use of ciclesonide for the treatment of upper airway cough syndrome provides the advantage of avoiding fungal infections typically associated with administration of corticosteroid in the posterior nasal region, pharynx and the larynx.
In conducting the rounds of testing, the Applicant used the embodiment of the oral delivery device of the present invention shown in FIG. 3. […] It should be noted that in some embodiments, the effective volume is greater or smaller than 375 milliliters. In operation, the patient released two sprays of aerosolized ciclesonide into the oral delivery device, each one of the sprays containing 200 micrograms of ciclesonide, and performed four to six oral inhalations, each one of the inhalations being followed by a nasal exhalation into the ambient atmosphere. Each one of the inhalations drew ambient air into the oral delivery device to sweep in an additional amount of aerosolized ciclesonide. […]

Take `CC(C)C(=O)OCC(=O)[C@@]12O[C@H](C3CCCCC3)O[C@@H]1C[C@H]1[C@@H]3CCC4=CC(=O)C=C[C@]4(C)[C@H]3[C@@H](O)C[C@@]12C` [ciclesonide]: the “patient-reported symptoms of upper airway cough syndrome following each round” value is on record as “significant alleviation of the symptoms”.
